# From article PMC4457840, “Differential Inhibition of Signal Peptide Peptidase Family Members by Established γ-Secretase Inhibitors” (PLoS ONE, 2015)
# “Also recorded” adds a separate entry of the source. Where two headings read alike, the source gives them in different places. Numbered stars: 1 amine (or outer) side, 2 acyl side, 3 side chain; on linkers, the order of the positions; unused ones are H or OH. Square brackets hold non-standard residues; d marks the D form. Peptide text beside a SMILES is read from it. * marks the point of attachment. X1 = CC(N[*:1])C(=O)C(F)(F)C(=O)[*:2]; Boc = CC(C)(C)OC(=O)*
# Key:
# hSPP = biological target: T1, hSPP (Homo sapiens, UniProt Q8TCT9); assay: FBA/hSPP co-transfected HEK 293T cell cleavage assay (Aβ ELISA, Western blot, IP/MS); format: cell-based; details: for inhibition of xAβ1-25/K16A secretion (in words) / inhibition at 25 µM: 25 μM, ELISA; for inhibition of FBA cleavage by Western blot: Fig 3C lower panel; for IC50: HEK cells, 24 h, xAβ1-25/K16A by Aβ ELISA, mean ± standard error, read-out: IC50 on FBA/SPPL co-transfected cells; for inhibition at 25 µM: DMSO = 100%, read-out: inhibition of the SPP/SPPLs; for rank order of inhibition: number in parenthesis in Table 3
# T1 construct: expressed in transfected cells; host or cells: HEK 293T
# T1 sequence (Q8TCT9 1-377): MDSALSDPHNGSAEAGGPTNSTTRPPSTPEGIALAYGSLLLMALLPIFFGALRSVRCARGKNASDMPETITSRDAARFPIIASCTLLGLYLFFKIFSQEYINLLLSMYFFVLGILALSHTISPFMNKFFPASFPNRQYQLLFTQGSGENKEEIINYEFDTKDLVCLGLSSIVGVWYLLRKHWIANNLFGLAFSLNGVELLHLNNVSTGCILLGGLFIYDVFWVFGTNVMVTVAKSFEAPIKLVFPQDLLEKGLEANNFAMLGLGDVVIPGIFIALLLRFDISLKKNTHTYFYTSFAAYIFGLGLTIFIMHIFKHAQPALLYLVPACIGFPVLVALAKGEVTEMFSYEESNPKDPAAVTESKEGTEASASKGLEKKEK
# Excerpt: (§1) Expression constructs in pcDNA6 for COOH-terminal FLAG (DYKDDDDK) and strep (WSHPQFEK) tagged SPPL2a, SPPL2b, hSPP and pSPP were generated as previously described. Untagged versions of all enzymes were also made and ligated into the pAG3 vector. Substrates (Fig 1) were designed as follows: FLAG-BRI2_1-81- Aβ1-25/K16A (FBA). The K16A mutation was incorporated to prevent potential α-secretase cleavage that would preclude ELISA based detection of the released COOH-terminal fragment. The substrate DNA was cloned into the expression vector pcDNA6. Constructs were confirmed by DNA sequencing. The overexpression of substrates was performed by transiently transfecting human embryonic kidney (HEK 293T) cells with or without SPP/SPPL vectors. Cells were grown in DMEM media supplemented with Hyclone 10% fetal bovine serum (GE, Logan, Utah, USA) and 1% penicillin/streptomycin (Life Technologies, Grand Island, NY, USA). Briefly, 2.7 μg DNA was applied to a 75% confluent 6 well plate (Corning, Tewksbury, MA, USA) using the polycation polyethylenimine (PEI) transfection method. Inhibitor testing experiments were conducted in 48 well plates with appropriately adjusted amounts of DNA and PEI and incubated 12–16 hours, after which the growth medium was replaced with fresh medium. DMSO (Sigma, St. Louis, MO, USA) and GSIs were added at the appropriate concentration. The GSIs, L685,458 and Compound W were purchased from Tocris (Tocris, Bristol, UK). (Z-LL)2 ketone, Compound E, DAPT, GSI II were purchased from Calbiochem (Merck Millipore, Billerica, MA, USA). LY-411,575 was synthesized by A. Fauq at the Mayo Clinic Chemical Core. Twenty-four hours later, the medium was collected for assay by ELISA and MS. A20 cells (TIB-208) (ATCC, Manassas, VA, USA) were cultured in RPMI-1640 medium (ATCC) supplied with 10% fetal bovine serum, 1% penicillin/streptomycin and 0.05 mM 2-mercaptoethanol (Life Technologies). At the density of 5x10^5 cells/ml, A20 cells were spun down at 1000 g for 2 min and resuspended in fresh medium supplied with DMSO or GSIs and incubated for 16 hr.
# (§2) Sandwich ELISAs used for Aβ detection were performed as previously described. Briefly, Aβ and Aβ adducts with substrate TMD in conditioned media was captured with Ab5 antibody (human Aβ1–16 specific) and detected with horseradish peroxidase mAb 4G8 (Covance, Princeton, NJ, USA). Synthetic Aβ1–40 was used as standard. All ELISAs were developed with TMB substrate (KPL, Gaithersburg, Maryland, USA). Bis-Tris precast gels (Biorad, Hercules, CA, USA) were used for all SDS-PAGE. Monoclonal anti-FLAG M2 antibody (Sigma) and Aβ1–16 antibody 6E10 (Covance) were used for Western blotting. Antisera against SPPL2a, SPPL2b, hSPP and pSPP were generated as previously described and were used at dilution of 1:1000 for Western blotting. Anti-CD74 In-1 antibody (BD Bioscience, San Jose, CA, USA) was used for A20 cell lysate Western blotting at dilution of 1:1000.
# (§3) Immunoprecipitation and mass spectrometry of xAβ1–25 in conditioned media were performed as previously described. In this study, 10 ml conditioned media were used for each experiment. ICDs were immunoprecipitated with anti-FLAG M2 magnetic beads. Cells from 10 cm dished treated with DMSO or 20 μM LY-411,575 were used for each test.
# pSPP = pSPP (Plasmodium falciparum, UniProt Q8IKQ9); assay: FBA/pSPP co-transfected HEK 293T cell cleavage assay (Aβ ELISA, Western blot, IP/MS); format: cell-based, human; details: for inhibition at 25 µM: read-out: inhibition of the SPP/SPPLs; for rank order of inhibition: number in parenthesis in Table 3
# Excerpt: as §1, §2, §3
# SPPL2b = biological target: T2, SPPL2b (Homo sapiens, UniProt Q8TCT7); assay: FBA/SPPL2b co-transfected HEK 293T cell cleavage assay (Aβ ELISA, Western blot, IP/MS); format: cell-based; details: for inhibition of xAβ1-25/K16A secretion (in words) / inhibition at 25 µM: 25 μM, ELISA; for inhibition of FBA cleavage (10 kD ICD) by Western blot: Fig 3C upper panel; for IC50: HEK cells, 24 h, xAβ1-25/K16A by Aβ ELISA, mean ± standard error, read-out: IC50 on FBA/SPPL co-transfected cells; for inhibition at 25 µM: DMSO = 100%, read-out: inhibition of the SPP/SPPLs; for rank order of inhibition: number in parenthesis in Table 3
# T2 construct: expressed in transfected cells; host or cells: HEK 293T
# T2 sequence (Q8TCT7 26-592): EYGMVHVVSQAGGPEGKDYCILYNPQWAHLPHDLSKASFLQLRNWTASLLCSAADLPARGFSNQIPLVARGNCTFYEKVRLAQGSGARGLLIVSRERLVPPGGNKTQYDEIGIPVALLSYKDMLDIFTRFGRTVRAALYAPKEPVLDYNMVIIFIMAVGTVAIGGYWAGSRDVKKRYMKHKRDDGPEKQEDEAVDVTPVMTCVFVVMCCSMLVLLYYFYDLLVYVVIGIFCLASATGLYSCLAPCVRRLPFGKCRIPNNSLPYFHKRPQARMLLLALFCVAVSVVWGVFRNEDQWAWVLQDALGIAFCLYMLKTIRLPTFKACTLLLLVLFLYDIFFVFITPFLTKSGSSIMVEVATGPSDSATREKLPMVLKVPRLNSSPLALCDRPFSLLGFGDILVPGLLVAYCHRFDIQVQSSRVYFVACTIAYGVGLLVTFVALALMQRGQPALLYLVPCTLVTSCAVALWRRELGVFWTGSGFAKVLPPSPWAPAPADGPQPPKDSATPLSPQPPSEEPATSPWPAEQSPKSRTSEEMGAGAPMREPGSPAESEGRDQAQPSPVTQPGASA
# Excerpt: as §1, §2, §3
# [1] = 10 μM, Western blot anti-FLAG M2
# [2] = HEK-293T, 10 μM, overnight, Aβ ELISA
# pSPP, sequence (Q8IKQ9 entry or part of it): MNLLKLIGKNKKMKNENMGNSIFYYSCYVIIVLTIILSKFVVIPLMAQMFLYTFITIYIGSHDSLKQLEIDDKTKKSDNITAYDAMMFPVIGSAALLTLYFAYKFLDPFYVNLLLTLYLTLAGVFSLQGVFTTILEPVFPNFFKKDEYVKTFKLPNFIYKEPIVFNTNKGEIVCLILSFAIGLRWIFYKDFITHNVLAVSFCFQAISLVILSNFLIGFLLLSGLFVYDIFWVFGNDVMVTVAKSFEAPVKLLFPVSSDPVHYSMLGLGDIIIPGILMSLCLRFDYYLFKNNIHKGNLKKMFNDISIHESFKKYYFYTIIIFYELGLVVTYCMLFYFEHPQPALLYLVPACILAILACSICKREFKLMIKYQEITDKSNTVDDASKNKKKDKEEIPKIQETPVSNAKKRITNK
Structure (SMILES),inhibition of xAβ1-25/K16A secretion (in words) (hSPP),inhibition of FBA cleavage by Western blot (hSPP),IC50 (hSPP) [nM],inhibition at 25 µM (hSPP; HEK-293T) [%],rank order of inhibition (hSPP),IC50 (pSPP) [nM],"inhibition of xAβ1-25/K16A secretion (in words) (pSPP; pSPP, 25 μM, ELISA)",rank order of inhibition (pSPP; pSPP),inhibition of xAβ1-25/K16A secretion (in words) (SPPL2b),inhibition of FBA cleavage (10 kD ICD) by Western blot (SPPL2b),IC50 (SPPL2b) [nM],inhibition at 25 µM (SPPL2b; HEK-293T) [%],rank order of inhibition (SPPL2b),also measured
CC(C)C[C@H](NC(=O)OCc1ccccc1)C(=O)N[C@@H](CC(C)C)C(=O)NCC(=O)CNC(=O)[C@H](CC(C)C)NC(=O)[C@H](CC(C)C)NC(=O)OCc1ccccc1 [(Z-LL)2 ketone],largely inhibited,efficiently inhibited,519 ± 97,> 90,4,472 ± 114,largely inhibited,3,largely inhibited,greatly inhibit,2140 ± 143,> 90,2,"FBA cleavage by co-transfected SPPL (in words) (hSPP; 10 μM, Aβ ELISA, Fig 1D): largely inhibited; generation of the SPP/SPPL dependent 10 kDa ICD (hSPP; [1]): significantly reduced; inhibition at 10 µM (hSPP; [2]): > 75%; inhibition at 10 µM (pSPP; HEK-293T, pSPP, 10 μM, overnight, Aβ ELISA): > 75%; inhibition at 25 µM (pSPP; HEK-293T, pSPP, 25 μM, ELISA, DMSO = 100%): > 90%; FBA cleavage by co-transfected SPPL (in words) (pSPP; pSPP, 10 μM, Aβ ELISA, Fig 1D): largely inhibited; generation of the SPP/SPPL dependent 10 kDa ICD (pSPP; pSPP, 10 μM, Western blot anti-FLAG M2): significantly reduced; FBA cleavage by co-transfected SPPL (in words) (SPPL2b; 10 μM, Aβ ELISA, Fig 1D): largely inhibited; generation of the SPP/SPPL dependent 10 kDa ICD (SPPL2b; [1]): significantly reduced; inhibition at 10 µM (SPPL2b; [2]): > 75%"
C[C@H](NC(=O)Cc1cc(F)cc(F)c1)C(=O)N[C@H]1N=C(c2ccccc2)c2ccccc2N(C)C1=O [Compound E],inhibited; also recorded: selectively inhibit hSPP cleavage,efficiently inhibited,1470 ± 93,,,,did not show inhibition,,did not show inhibition,negligible effect,,,,inhibition of xAβ1-25/K16A secretion (in words) (hSPP; listed as Comp E): selectively inhibit hSPP
C[C@H](NC(=O)Cc1cc(F)cc(F)c1)C(=O)NC(C(=O)OC(C)(C)C)c1ccccc1 (some centres unmarked) [DAPT],does not inhibit,,,,,,does not inhibit,,does not inhibit,slightly reduce,,,,
CC[C@H](C)[C@H](NC(=O)[C@@H](NC(=O)OC(C)(C)C)C(C)C)C(=O)NC(C)C(=O)C(F)(F)C(=O)N[C@H](C(=O)N[C@H](C(=O)OC)[C@@H](C)CC)C(C)C (some centres unmarked) [GSI II] (Boc-VI[X1]VI-OMe),efficiently inhibited; also recorded: largely inhibited,efficiently inhibited,423 ± 92,,3,427 ± 100,efficiently inhibited; also recorded: largely inhibited,2,efficiently inhibited; also recorded: largely inhibited,greatly inhibit,3600 ± 121,,3,
"C[C@H](NC(=O)[C@@H](O)c1cc(F)cc(F)c1)C(=O)N[C@@H]1C(=O)N(C)c2ccccc2-c2ccccc21 [LY-411,575]",largely inhibited,efficiently inhibited,150 ± 106,> 90,1,3480 ± 90,largely inhibited,4,largely inhibited,greatly inhibit,5500 ± 122,> 90,4,"cleavage products in conditioned media by IP/MS (hSPP; 20 μM): No major cleavage product was detected; inhibition at 25 µM (pSPP; HEK-293T): > 90%; cleavage products in conditioned media by IP/MS (pSPP; pSPP, 20 μM): No major cleavage product was detected; cleavage products in conditioned media by IP/MS (SPPL2b; 20 μM): No major cleavage product was detected"
